Test results from ChEMBL document CHEMBL6114949, “Synthesis and physiological effects of new 4-aminophenol derivatives as paracetamol analogues” (Bioorg Med Chem Lett, 2025).
Calls of active or inactive are those of the source. The calls are words filed in the database; no cut-off is given here.

Columns and labels:
Rattus norvegicus [1] = test: Antipyretic activity against LPS-induced polyphasic febrile response in rats assessed as suppression of rise in core body temperature at 215 mg/kg, po treated 40 mins prior to LPS addition and measured after 160 mins relative to control; format: functional; conditions: time 200 min, 3.333 h
Rattus norvegicus [2] = test: Antinociceptive activity in zymosan-induced rat arthritis model assessed as nociceptive response inhibition at 215 mg/kg, ig administered once daily for 7 days and measured 1 hr post-zymosan challenge on day 7 by Randall-Selitto test (reference value: -34.6%); format: functional; conditions: po, 168 h, time 7 day
[3] = Hepatotoxicity in zymosan-induced rat arthritis model assessed as effect on beam structure of liver at 215 mg/kg, ig administered once daily for 7 days by hematoxylin-eosin staining based histological analysis; format: toxicity, organism-based; conditions: in vivo, po, 168 h, time 7 day
Rattus norvegicus [4] = test: Antinociceptive activity in zymosan-induced rat model of thermal nociceptive hypersensitivity assessed as nociceptive response inhibition at 215 mg/kg, ig administered once daily for 7 days and measured 1 hr post-zymosan challenge on day 7 by hot-plate test (reference value: -42.4%); format: functional; conditions: po, 168 h, time 7 day
[5] = Hepatotoxicity in zymosan-induced rat arthritis model assessed as effect on sinusoids elongation at 215 mg/kg, ig administered once daily for 7 days by hematoxylin-eosin staining based histological analysis; format: toxicity, organism-based, Liver; conditions: in vivo, po, 168 h, time 7 day
[6] = Hepatotoxicity in zymosan-induced rat arthritis model assessed as change in hepatocyte cytoplasmic appearance at 215 mg/kg, ig administered once daily for 7 days by hematoxylin-eosin staining based histological analysis; format: toxicity, organism-based, Liver; conditions: in vivo, po, 168 h, time 7 day
[7] = Hepatotoxicity in zymosan-induced rat arthritis model assessed as change in shape of liver central veins at 215 mg/kg, ig administered once daily for 7 days by hematoxylin-eosin staining based histological analysis; format: toxicity, organism-based; conditions: in vivo, po, 168 h, time 7 day
Rattus norvegicus [8] = test: Antipyretic activity against LPS-induced polyphasic febrile response in rats assessed as change in core body temperature at 215 mg/kg, po treated 40 mins prior to LPS addition and measured after 160 mins during phase 1 (reference value: 0.85 deg C); format: functional, organism-based; conditions: time 200.0 min
[9] = Hepatotoxicity in zymosan-induced rat arthritis model assessed as appearance of vacuoles in hepatocyte cytoplasm at 215 mg/kg, ig administered once daily for 7 days by hematoxylin-eosin staining based histological analysis; format: toxicity, organism-based, Liver; conditions: in vivo, po, 168 h, time 7 day
[10] = Hepatotoxicity in zymosan-induced rat arthritis model assessed as change in hepatocyte shape at 215 mg/kg, ig administered once daily for 7 days by hematoxylin-eosin staining based histological analysis; format: toxicity, organism-based, Liver; conditions: in vivo, po, 168 h, time 7 day
[11] = Hepatotoxicity in zymosan-induced rat arthritis model assessed as effect on general architecture of liver at 215 mg/kg, ig administered once daily for 7 days by hematoxylin-eosin staining based histological analysis; format: toxicity, organism-based; conditions: in vivo, po, 168 h, time 7 day
[12] = Hepatotoxicity in zymosan-induced rat arthritis model assessed as effect on sinusoids arrangement at 215 mg/kg, ig administered once daily for 7 days by hematoxylin-eosin staining based histological analysis; format: toxicity, organism-based, Liver; conditions: in vivo, po, 168 h, time 7 day
Rattus norvegicus [13] = test: Antipyretic activity against LPS-induced polyphasic febrile response in rats assessed as return of body temperature to background value at 215 mg/kg, po treated 40 mins prior to LPS addition and measured after 190 mins; format: functional, organism-based; conditions: time 230.0 min
[14] = Hepatotoxicity in zymosan-induced rat arthritis model assessed as disruption of hepatocyte membrane at 215 mg/kg, ig administered once daily for 7 days by hematoxylin-eosin staining based histological analysis; format: toxicity, organism-based, Liver; conditions: in vivo, po, 168 h, time 7 day
[15] = Hepatotoxicity in zymosan-induced rat arthritis model assessed as change in hepatocyte karyoplasm at 215 mg/kg, ig administered once daily for 7 days by hematoxylin-eosin staining based histological analysis; format: toxicity, organism-based, Liver; conditions: in vivo, po, 168 h, time 7 day
Rattus norvegicus [16] = test: Antipyretic activity against LPS-induced polyphasic febrile response in rats assessed as suppression of rise in core body temperature at 215 mg/kg, po treated 40 mins prior to LPS addition and measured after 10 mins; format: functional, organism-based; conditions: time 50.0 min
[17] = Hepatotoxicity in zymosan-induced rat arthritis model assessed as change in shape of liver portal tracts at 215 mg/kg, ig administered once daily for 7 days by hematoxylin-eosin staining based histological analysis; format: toxicity, organism-based; conditions: in vivo, po, 168 h, time 7 day
[18] = Hepatotoxicity in zymosan-induced rat arthritis model assessed as change in hepatocyte nucleus size at 215 mg/kg, ig administered once daily for 7 days by hematoxylin-eosin staining based histological analysis; format: toxicity, organism-based, Liver; conditions: in vivo, po, 168 h, time 7 day
[19] = Hepatotoxicity in zymosan-induced rat arthritis model assessed as change in shape of liver central veins at 150 mg/kg, ig administered once daily for 7 days by hematoxylin-eosin staining based histological analysis; format: toxicity, organism-based; conditions: in vivo, po, 168 h, time 7 day
[20] = Hepatotoxicity in zymosan-induced rat arthritis model assessed as effect on beam structure of liver at 150 mg/kg, ig administered once daily for 7 days by hematoxylin-eosin staining based histological analysis; format: toxicity, organism-based; conditions: in vivo, po, 168 h, time 7 day
Rattus norvegicus [21] = test: Antipyretic activity against LPS-induced polyphasic febrile response in rats assessed as change in core body temperature at 150 mg/kg, po treated 40 mins prior to LPS addition and measured after 160 mins during phase 1 (reference value: 0.85 deg C); format: functional; conditions: time 200 min, 3.333 h
[22] = Hepatotoxicity in zymosan-induced rat arthritis model assessed as change in hepatocyte nucleus size at 150 mg/kg, ig administered once daily for 7 days by hematoxylin-eosin staining based histological analysis; format: toxicity, organism-based, Liver; conditions: in vivo, po, 168 h, time 7 day
Rattus norvegicus [23] = test: Antinociceptive activity in zymosan-induced rat model of thermal nociceptive hypersensitivity assessed as nociceptive response inhibition at 150 mg/kg, ig administered once daily for 7 days and measured 1 hr post-zymosan challenge on day 7 by hot-plate test (reference value: -42.4%); format: functional; conditions: po, 168 h, time 7 day
[24] = Hepatotoxicity in zymosan-induced rat arthritis model assessed as effect on general architecture of liver at 150 mg/kg, ig administered once daily for 7 days by hematoxylin-eosin staining based histological analysis; format: toxicity, organism-based; conditions: in vivo, po, 168 h, time 7 day
Rattus norvegicus [25] = test: Antinociceptive activity in zymosan-induced rat arthritis model assessed as nociceptive response inhibition at 150 mg/kg, ig administered once daily for 7 days and measured 1 hr post-zymosan challenge on day 7 by Randall-Selitto test (reference value: -34.6%); format: functional; conditions: po, 168 h, time 7 day
Rattus norvegicus [26] = test: Antipyretic activity against LPS-induced polyphasic febrile response in rats assessed as return of body temperature to background value at 150 mg/kg, po treated 40 mins prior to LPS addition and measured after 235 mins; format: functional, organism-based; conditions: time 275.0 min
[27] = Hepatotoxicity in zymosan-induced rat arthritis model assessed as effect on sinusoids elongation at 150 mg/kg, ig administered once daily for 7 days by hematoxylin-eosin staining based histological analysis; format: toxicity, organism-based, Liver; conditions: in vivo, po, 168 h, time 7 day
[28] = Hepatotoxicity in zymosan-induced rat arthritis model assessed as effect on sinusoids arrangement at 150 mg/kg, ig administered once daily for 7 days by hematoxylin-eosin staining based histological analysis; format: toxicity, organism-based, Liver; conditions: in vivo, po, 168 h, time 7 day
[29] = Hepatotoxicity in zymosan-induced rat arthritis model assessed as change in hepatocyte shape at 150 mg/kg, ig administered once daily for 7 days by hematoxylin-eosin staining based histological analysis; format: toxicity, organism-based, Liver; conditions: in vivo, po, 168 h, time 7 day
[30] = Hepatotoxicity in zymosan-induced rat arthritis model assessed as change in shape of liver portal tracts at 150 mg/kg, ig administered once daily for 7 days by hematoxylin-eosin staining based histological analysis; format: toxicity, organism-based; conditions: in vivo, po, 168 h, time 7 day
[31] = Hepatotoxicity in zymosan-induced rat arthritis model assessed as disruption of hepatocyte membrane at 150 mg/kg, ig administered once daily for 7 days by hematoxylin-eosin staining based histological analysis; format: toxicity, organism-based, Liver; conditions: in vivo, po, 168 h, time 7 day
Rattus norvegicus [32] = test: Antipyretic activity against LPS-induced polyphasic febrile response in rats assessed as suppression of rise in core body temperature at 150 mg/kg, po treated 40 mins prior to LPS addition and measured after 160 mins relative to control; format: functional; conditions: time 200 min, 3.333 h
[33] = Hepatotoxicity in zymosan-induced rat arthritis model assessed as change in hepatocyte cytoplasmic appearance at 150 mg/kg, ig administered once daily for 7 days by hematoxylin-eosin staining based histological analysis; format: toxicity, organism-based, Liver; conditions: in vivo, po, 168 h, time 7 day
[34] = Hepatotoxicity in zymosan-induced rat arthritis model assessed as change in hepatocyte karyoplasm at 150 mg/kg, ig administered once daily for 7 days by hematoxylin-eosin staining based histological analysis; format: toxicity, organism-based, Liver; conditions: in vivo, po, 168 h, time 7 day
[35] = Hepatotoxicity in zymosan-induced rat arthritis model assessed as appearance of vacuoles in hepatocyte cytoplasm at 150 mg/kg, ig administered once daily for 7 days by hematoxylin-eosin staining based histological analysis; format: toxicity, organism-based, Liver; conditions: in vivo, po, 168 h, time 7 day

SMILES: CCCCCCCCCCCCCCCC(=O)Nc1ccc(OCC(=O)O)cc1
- fold change (FC) (Rattus norvegicus [1]): 3
- inhibition in vivo at 215 mg/kg (Rattus norvegicus [2]): 21.7%
- Activity [3]: Non-toxic
- inhibition in vivo at 215 mg/kg (Rattus norvegicus [4]): 42.2%
- Activity [5]: Non-toxic
- Activity [6]: Non-toxic
- Activity [7]: Non-toxic
- ΔTm (Rattus norvegicus [8]): 0.28 °C
- Activity [9]: Non-toxic
- Activity [10]: Non-toxic
- Activity [11]: Non-toxic
- Activity [12]: Non-toxic
- Activity (Rattus norvegicus [13]): Active
- Activity [14]: Non-toxic
- Activity [15]: Non-toxic
- Activity (Rattus norvegicus [16]): Active
- Activity [17]: Non-toxic
- Activity [18]: Non-toxic

SMILES: CCCCCCCC(=O)Nc1ccc(OCC(=O)O)cc1
- Activity [19]: Non-toxic
- Activity [20]: Non-toxic
- T (Rattus norvegicus [21]): 0.28 °C
- Activity [22]: Non-toxic
- inhibition in vivo at 150 mg/kg (Rattus norvegicus [23]): 8.5%
- Activity [24]: Non-toxic
- inhibition in vivo at 150 mg/kg (Rattus norvegicus [25]): 21.3%
- Activity (Rattus norvegicus [26]): Active
- Activity [27]: Non-toxic
- Activity [28]: Non-toxic
- Activity [29]: Non-toxic
- Activity [30]: Non-toxic
- Activity [31]: Non-toxic
- fold change (FC) (Rattus norvegicus [32]): 3
- Activity [33]: Non-toxic
- Activity [34]: Non-toxic
- Activity [35]: Non-toxic
